Numbers after ± are expanded uncertainties.

The conditions of data set [1]: 298.2 K; 101.33 kPa; Liquid; Vibrating tube method.
A short description of data set [2]: refractive index (Na D-line) (dimensionless). The note with it: 298.2 K; 101.33 kPa; Liquid; Standard Abbe refractometry.

`CC(C)CCO` [3-methylbutan-1-ol]: the mass density in data set [1] is listed as 807.16 ± 0.35 kg/m3. Moreover, the refractive index in data set [2] was 1.40528 ± 0.00042.

`CCCCC(=O)OCC` [ethyl pentanoate]: in data set [1], the mass density is given as 872.36 ± 0.36 kg/m3. In data set [2], the refractive index is 1.39841 ± 0.00042.

Regarding `CCCCCCCC(=O)OCC` [ethyl octanoate], the mass density in data set [1] is reported as 862.23 ± 0.36 kg/m3. The refractive index in data set [2] was determined as 1.41572 ± 0.00042.

In the case of `CCOC(=O)CCC(=O)OCC` [diethyl butanedioate], the mass density in data set [1] was 1035.34 ± 0.4 kg/m3. Besides, in data set [2], the refractive index was determined as 1.41967 ± 0.00042.

As for `CCOC(=O)CCCCCCCCC(=O)OCC` [diethyl decanedioate], the mass density in data set [1] was 959.18 ± 0.37 kg/m3. The refractive index in data set [2] is given as 1.43485 ± 0.00042.

With `O=CO` [formic acid], the mass density in data set [1] is 1214.1 ± 0.51 kg/m3. The refractive index in data set [2] is reported as 1.36939 ± 0.00042.

For the origin of these results see the NIST ThermoML archive (doi:10.1016/j.fluid.2016.08.041).
